Laboratory results from patent publication US12565505B2, “mTORC modulators and uses thereof” (Aeovian Pharmaceuticals, Inc., priority 2019, dated 2026).

Key:
[1] = molecular target: T1, mTORC1 (Homo sapiens, UniProt P42345+P62942); assay: Inhibition assay for mTORC1: phosphorylation of pS6K at Thr389, AlphaLISA SureFire in PC3 cells; format: cell-based; conditions: PC3 cells, 24 hours treatment, pS6K Thr389; analogs substituted at C40 and C16 (C16 diastereomer mixtures not isolated); read-out: pIC50 mTORC1 (converted)
T1 construct: endogenous in cells; host or cells: PC3 cells (human prostate adenocarcinoma)
Procedure: (§1) The IC50s of the inhibition of mTORC1 and mTORC2 were determined in vitro by determining the phosphorylation of pS6K at position Thr389 (mTORC1 inhibition) and pAkt at Ser473 (mTORC2 inhibition). In vitro studies were performed with AiphaLISA® technology using PC3 cells (Prostate Adenocarcinoma; Human (Homo sapiens)). The cells were seeded in 96 well plates and were treated for 24 hours with the different compounds. […] All analysis were performed using GraphPad Prism 7.0 (GraphPad Software, San Diego, USA).
Tables 5-7 include PIC50 values for mTORC1 of selected compounds; with compounds having an PIC50 for mTORC1 of >9.5 as A, 8.5 to 9.5 as B, and less than 8.5 as C.

[2] = molecular target: T2, mTORC2 (Homo sapiens, UniProt P42345+P62942); assay: Inhibition assay for mTORC2: phosphorylation of pAkt at Ser473, AlphaLISA SureFire in PC3 cells; format: cell-based; conditions: PC3 cells, 24 hours treatment, analogs substituted at C40 and C16 (C16 diastereomer mixtures not isolated), read-out: pIC50 mTORC2 (converted)
T2 construct: endogenous in cells; host or cells: PC3 cells (human prostate adenocarcinoma)
Procedure: as §1, with “USA). […]” for “USA).”

Row | SMILES | IC50 [1] [µM] | IC50 [2] [µM]
1 | COCCOC1C[C@@H]2CC[C@@H](C)[C@@](O)(O2)C(=O)C(=O)N2CCCCC2C(=O)O[C@H]([C@H](C)C[C@@H]2CC[C@@H](OC[C@@H](O)CO)[C@H](OC)C2)CC(=O)[C@H](C)/C=C(\C)[C@@H](O)[C@@H](OC)C(=O)[C@H](C)C[C@H](C)/C=C/C=C/C=C/1C (stereo partly shown) [Compound 58] | < 0.000316 | 1 to 10
2 | CO[C@@H]1C[C@H](C[C@@H](C)[C@@H]2CC(=O)[C@H](C)/C=C(\C)[C@@H](O)[C@@H](OC)C(=O)[C@H](C)C[C@H](C)/C=C/C=C/C=C(\C)C(OCC3COC3)C[C@@H]3CC[C@@H](C)[C@@](O)(O3)C(=O)C(=O)N3CCCCC3C(=O)O2)CC[C@H]1OCCCO (stereo partly shown) [Compound 84] | 0.000316 to 0.00316 | 1 to 10
3 | CO[C@@H]1C[C@H](C[C@@H](C)[C@@H]2CC(=O)[C@H](C)/C=C(\C)[C@@H](O)[C@@H](OC)C(=O)[C@H](C)C[C@H](C)/C=C/C=C/C=C(\C)C(OCCO)C[C@@H]3CC[C@@H](C)[C@@](O)(O3)C(=O)C(=O)N3CCCCC3C(=O)O2)CC[C@H]1OCCCN1C[C@@H](C)O[C@@H](C)C1 (stereo partly shown) [Compound 18] | < 0.000316 | > 10
4 | COCCCOC1C[C@@H]2CC[C@@H](C)[C@@](O)(O2)C(=O)C(=O)N2CCCCC2C(=O)O[C@H]([C@H](C)C[C@@H]2CC[C@@H](OCCO)[C@H](OC)C2)CC(=O)[C@H](C)/C=C(\C)[C@@H](O)[C@@H](OC)C(=O)[C@H](C)C[C@H](C)/C=C/C=C/C=C/1C (stereo partly shown) [Compound 31] | < 0.000316 | 1 to 10
5 | CO[C@@H]1C[C@H](C[C@@H](C)[C@@H]2CC(=O)[C@H](C)/C=C(\C)[C@@H](O)[C@@H](OC)C(=O)[C@H](C)C[C@H](C)/C=C/C=C/C=C(\C)C(OCC3CCOCC3)C[C@@H]3CC[C@@H](C)[C@@](O)(O3)C(=O)C(=O)N3CCCCC3C(=O)O2)CC[C@H]1OCCO (stereo partly shown) [Compound 86] | 0.000316 to 0.00316 | 1 to 10
6 | CO[C@@H]1C[C@H](C[C@@H](C)[C@@H]2CC(=O)[C@H](C)/C=C(\C)[C@@H](O)[C@@H](OC)C(=O)[C@H](C)C[C@H](C)/C=C/C=C/C=C(\C)C(OCCO)C[C@@H]3CC[C@@H](C)[C@@](O)(O3)C(=O)C(=O)N3CCCCC3C(=O)O2)CC[C@H]1OCCCN1CCCCC1 (stereo partly drawn) [Compound 87, (1R,9S,12S,15R,16E,18R,19R,21R,23S,24E,26E,28E,32S,35R)-1,18-dihydroxy-30-(2-hydroxyethoxy)-19-methoxy-12-[(1R)-2-[(1S,3R,4R)-3-methoxy-4-[3-(1-piperidyl)propoxy]cyclohexyl]-1-methyl-ethyl]-15,17,21,23,29,35-hexamethyl-11,36-dioxa-4-azatricyclo[30.3.1.0^4,9]hexatriaconta-16,24,26,28-tetraene-2,3,10,14,20-pentone] | 0.000316 to 0.00316 | 1 to 10
7 | CO[C@@H]1C[C@H](C[C@@H](C)[C@@H]2CC(=O)[C@H](C)/C=C(\C)[C@@H](O)[C@@H](OC)C(=O)[C@H](C)C[C@H](C)/C=C/C=C/C=C(\C)C(OC[C@H](O)c3ccccc3)C[C@@H]3CC[C@@H](C)[C@@](O)(O3)C(=O)C(=O)N3CCCCC3C(=O)O2)CC[C@H]1OCCO (stereo partly shown) [Compound 88] | < 0.000316 | 1 to 10
8 | COCCOC1C[C@@H]2CC[C@@H](C)[C@@](O)(O2)C(=O)C(=O)N2CCCCC2C(=O)O[C@H]([C@H](C)C[C@@H]2CC[C@@H](OC(=O)NCCN3CCCCC3)[C@H](OC)C2)CC(=O)[C@H](C)/C=C(\C)[C@@H](O)[C@@H](OC)C(=O)[C@H](C)C[C@H](C)/C=C/C=C/C=C/1C (stereo partly shown) [Compound 57] | < 0.000316 | 1 to 10
9 | CO[C@@H]1C[C@H](C[C@@H](C)[C@@H]2CC(=O)[C@H](C)/C=C(\C)[C@@H](O)[C@@H](OC)C(=O)[C@H](C)C[C@H](C)/C=C/C=C/C=C(\C)C(OCCO)C[C@@H]3CC[C@@H](C)[C@@](O)(O3)C(=O)C(=O)N3CCCCC3C(=O)O2)CC[C@H]1OC(=O)N(C)CCCN(C)C (stereo partly shown) [Compound 77] | 0.000316 to 0.00316 | > 10
10 | COCCOC1C[C@@H]2CC[C@@H](C)[C@@](O)(O2)C(=O)C(=O)N2CCCCC2C(=O)O[C@H]([C@H](C)C[C@@H]2CC[C@@H](OCCN3C[C@@H](C)O[C@@H](C)C3)[C@H](OC)C2)CC(=O)[C@H](C)/C=C(\C)[C@@H](O)[C@@H](OC)C(=O)[C@H](C)C[C@H](C)/C=C/C=C/C=C/1C (stereo partly shown) [Compound 81] | 0.000316 to 0.00316 | 1 to 10
11 | CO[C@@H]1C[C@H](C[C@@H](C)[C@@H]2CC(=O)[C@H](C)/C=C(\C)[C@@H](O)[C@@H](OC)C(=O)[C@H](C)C[C@H](C)/C=C/C=C/C=C(\C)C(OCCO)C[C@@H]3CC[C@@H](C)[C@@](O)(O3)C(=O)C(=O)N3CCCCC3C(=O)O2)CC[C@H]1OCCCN1CCO[C@H](C)C1 (stereo partly shown) [Compound 43] |  | 1 to 10
12 | CO[C@@H]1C[C@H](C[C@@H](C)[C@@H]2CC(=O)[C@H](C)/C=C(\C)[C@@H](O)[C@@H](OC)C(=O)[C@H](C)C[C@H](C)/C=C/C=C/C=C(\C)C(OCCO)C[C@@H]3CC[C@@H](C)[C@@](O)(O3)C(=O)C(=O)N3CCCC[C@H]3C(=O)O2)CC[C@H]1OCCCN1CCO[C@H](C)C1 (mixture of isomers) [Compound 13] |  | > 10

Results, then the compound that gave them:

Row | IC50 [1] [µM] | IC50 [2] [µM] | SMILES
13 | < 0.000316 | < 1 | CO[C@@H]1C[C@H](C[C@@H](C)[C@@H]2CC(=O)[C@H](C)/C=C(\C)[C@@H](O)[C@@H](OC)C(=O)[C@H](C)C[C@H](C)/C=C/C=C/C=C(\C)C(OCc3ccccc3)C[C@@H]3CC[C@@H](C)[C@@](O)(O3)C(=O)C(=O)N3CCCCC3C(=O)O2)CC[C@H]1OC(=O)NCCN1CCOCC1 (stereo partly shown) [Compound 115]
14 | 0.000316 to 0.00316 | 1 to 10 | CO[C@@H]1C[C@H](C[C@@H](C)[C@@H]2CC(=O)[C@H](C)/C=C(\C)[C@@H](O)[C@@H](OC)C(=O)[C@H](C)C[C@H](C)/C=C/C=C/C=C(\C)C(OCCO)C[C@@H]3CC[C@@H](C)[C@@](O)(O3)C(=O)C(=O)N3CCCCC3C(=O)O2)CC[C@H]1OC(=O)NCCn1cnnn1 (stereo partly shown) [Compound 89]
15 | < 0.000316 | < 1 | CO[C@@H]1C[C@H](C[C@@H](C)[C@@H]2CC(=O)[C@H](C)/C=C(\C)[C@@H](O)[C@@H](OC)C(=O)[C@H](C)C[C@H](C)/C=C/C=C/C=C(\C)C(OCCc3ccccc3)C[C@@H]3CC[C@@H](C)[C@@](O)(O3)C(=O)C(=O)N3CCCCC3C(=O)O2)CC[C@H]1OCCCN1CCN(C)CC1 (stereo partly shown) [Compound 97]
16 | < 0.000316 | < 1 | CO[C@@H]1C[C@H](C[C@@H](C)[C@@H]2CC(=O)[C@H](C)/C=C(\C)[C@@H](O)[C@@H](OC)C(=O)[C@H](C)C[C@H](C)/C=C/C=C/C=C(\C)C(OCc3ccccc3)C[C@@H]3CC[C@@H](C)[C@@](O)(O3)C(=O)C(=O)N3CCCCC3C(=O)O2)CC[C@H]1OC(=O)NCCc1ccccc1 (stereo partly shown) [Compound 117]
17 | < 0.000316 | < 1 | CO[C@@H]1C[C@H](C[C@@H](C)[C@@H]2CC(=O)[C@H](C)/C=C(\C)[C@@H](O)[C@@H](OC)C(=O)[C@H](C)C[C@H](C)/C=C/C=C/C=C(\C)C(OCCc3ccccc3)C[C@@H]3CC[C@@H](C)[C@@](O)(O3)C(=O)C(=O)N3CCCCC3C(=O)O2)CC[C@H]1OCCCN1CCCCC1 (stereo partly shown) [Compound 101]
18 | 0.000316 to 0.00316 | 1 to 10 | CO[C@@H]1C[C@H](C[C@@H](C)[C@@H]2CC(=O)[C@H](C)/C=C(\C)[C@@H](O)[C@@H](OC)C(=O)[C@H](C)C[C@H](C)/C=C/C=C/C=C(\C)C(OCCC3CCOCC3)C[C@@H]3CC[C@@H](C)[C@@](O)(O3)C(=O)C(=O)N3CCCCC3C(=O)O2)CC[C@H]1OCCCO (stereo partly shown) [Compound 106]
